The source of these data is US8586743B2, “Labeling reagents and methods of their use” (Life Technologies Corporation, priority 2007, dated 2013).

The structures appear in SMILES notation.

For data set [1] the following is noted: buffer, pH 8.6.
Protocol: (§1) Samples were incubated at room temperature in the indicated solution.
(§2) 2-(6-amino-3-iminio-4,5-disulfonato-3H-xanthen-9-yl)benzoate, comprising an SDP ester was prepared and compared to commercially available 2-(6-amino-3-iminio-4,5-disulfonato-3H-xanthen-9-yl)benzoate comprising a succinimidyl ester (SE) and 2-(6-amino-3-iminio-4,5-disulfonato-3H-xanthen-9-yl)benzoate comprising a TFP for hydrolytic stability in 25 mM Pi buffer pH 8.6.
The nature of data set [2]: Hydrolysis half-life by HPLC (percent hydrolysis) at room temperature.
Protocol: as §1, §2
The mark [3] stands for this setting: phosphate buffer with imidazole, pH 8.6.

Take `N=c1ccc2c(-c3ccc(C(=O)Oc4c(Cl)cc(S(=O)(=O)O)cc4Cl)cc3C(=O)O)c3ccc(N)c(S(=O)(=O)O)c3oc-2c1S(=O)(=O)O` [Compound 102]: the “half-life (hydrolytic stability)” value in data set [1] came out at 28 h. For the same compound, the half-life is 384 h in data set [2] (DMSO); 159 h in data set [2] (HEPES buffer, pH 8.2); 1.58 h in data set [2] (Tris buffer with NaN3, pH 8.6); 1020 h in data set [2] (Tris buffer, pH 7); 77 h in data set [2] (Tris buffer, pH 8.6); 3.5 h in data set [2] (borate buffer, pH 8.6). Further, the half-life in data set [2] (setting [3]) is 0.633 h; in data set [2] (phosphate buffer, pH 7.2), 245 h; in data set [2] (phosphate buffer, pH 8.6) it was 28 h; in data set [2] (water), 504 h.

For the compound `N=c1ccc2c(-c3cc(C(=O)Oc4c(Cl)cc(S(=O)(=O)O)cc4Cl)ccc3C(=O)O)c3ccc(N)c(S(=O)(=O)O)c3oc-2c1S(=O)(=O)O` [Compound 104], the half-life in data set [2] (phosphate buffer, pH 8.6) is 17 h.

With `CC1(C)C(/C=C/C=C/C=C2\N(CCCS(=O)(=O)O)c3ccc(S(=O)(=O)[O-])cc3C2(C)CCCCCC(=O)Oc2c(Cl)cc(S(=O)(=O)O)cc2Cl)=[N+](CCCS(=O)(=O)O)c2ccc(S(=O)(=O)O)cc21` (stereo not shown) [Compound 114], the half-life in data set [2] (phosphate buffer, pH 8.6) was 1.7 h.

As to `N=c1ccc2c(-c3ccc(C(=O)Oc4c(F)c(F)cc(F)c4F)cc3C(=O)O)c3ccc(N)c(S(=O)(=O)O)c3oc-2c1S(=O)(=O)O` [Compound 120, reference compound], the half-life in data set [2] (HEPES buffer, pH 8.2) was 6.5 h; in data set [2] (Tris buffer with NaN3, pH 8.6), < 0.0167 h; in data set [2] (Tris buffer, pH 7) it was 13.9 h; in data set [2] (Tris buffer, pH 8.6) it was 2.32 h; in data set [2] (borate buffer, pH 8.6) it was < 0.0833 h; in data set [2] (setting [3]) it was < 0.0333 h. Besides, the half-life in data set [2] (phosphate buffer, pH 7.2) is 2.88 h; in data set [2] (phosphate buffer, pH 8.6) it was 1.3 h.

Take `CC1(C)C(/C=C/C=C/C=C2\N(CCCS(=O)(=O)O)c3ccc(S(=O)(=O)[O-])cc3C2(C)CCCCCC(=O)ON2C(=O)CCC2=O)=[N+](CCCS(=O)(=O)O)c2ccc(S(=O)(=O)O)cc21` (stereo not shown) [Compound 121, reference compound]: in data set [2] (phosphate buffer, pH 8.6), the half-life amounted to 1.75 h.
